How the values were obtained:
TMD-8 cells = assay: TMD-8 proliferation inhibition experiment; format: cell-based; settings: human diffuse large B lymphoma cells, three days incubation
Procedure: TMD-8 cells are human diffuse large B lymphoma (Mingzhou Bio, MZ-0832), cultured in 10% FBS+1% PS 1640 medium; OCI-LY10 is human diffuse large B lymphoma (BeNa Culture Collection, BNCC337742), cultured in 10% FBS+1% PS IMDM. Day 1: Cells at logarithmic growth phase were taken, counted and inoculated 600 TMD-8 or 2000 OCI-LY10 cells in a 384-well cell culture plate and cultured overnight. Day 2: A 3-fold gradient concentration stock solution of 400× compound was prepared with DMSO, and diluted 40-fold to a 10× compound stock solution with culture medium. The 10× compound stock solution was added to each cell culture well with a final concentration of 1× compound stock solution and a DMSO content of 0.25%. DMSO was used as experimental control, and culture medium was used as blank control. The incubation was continued for three days after compound addition. On the fifth day, 25 μL of […] was added to each well, mixed well and incubated for 10 minutes, then the chemiluminescence value (RLU value) was read. The cell proliferation inhibition rate (%)=(RLUcontrol−RLUcompound)/(RLUcontrol−RLUblank)×100% was calculated. The compound gradient dilution concentration and the corresponding cell proliferation inhibition rate were fit by using XLFit four-parameter method, and IC50 value was calculated.

BTK = BTK (Homo sapiens (Human), UniProt Q06187); assay: BTK enzyme experiment (ADP-Glo kinase assay); format: biochemical; settings: 10 nM BTK, ATP 125 μM, Poly(Glu4, Tyr1), 90 minutes at 20° C.; read-out: BTK(WT) IC50
Sequence of BTK (Q06187 whole entry): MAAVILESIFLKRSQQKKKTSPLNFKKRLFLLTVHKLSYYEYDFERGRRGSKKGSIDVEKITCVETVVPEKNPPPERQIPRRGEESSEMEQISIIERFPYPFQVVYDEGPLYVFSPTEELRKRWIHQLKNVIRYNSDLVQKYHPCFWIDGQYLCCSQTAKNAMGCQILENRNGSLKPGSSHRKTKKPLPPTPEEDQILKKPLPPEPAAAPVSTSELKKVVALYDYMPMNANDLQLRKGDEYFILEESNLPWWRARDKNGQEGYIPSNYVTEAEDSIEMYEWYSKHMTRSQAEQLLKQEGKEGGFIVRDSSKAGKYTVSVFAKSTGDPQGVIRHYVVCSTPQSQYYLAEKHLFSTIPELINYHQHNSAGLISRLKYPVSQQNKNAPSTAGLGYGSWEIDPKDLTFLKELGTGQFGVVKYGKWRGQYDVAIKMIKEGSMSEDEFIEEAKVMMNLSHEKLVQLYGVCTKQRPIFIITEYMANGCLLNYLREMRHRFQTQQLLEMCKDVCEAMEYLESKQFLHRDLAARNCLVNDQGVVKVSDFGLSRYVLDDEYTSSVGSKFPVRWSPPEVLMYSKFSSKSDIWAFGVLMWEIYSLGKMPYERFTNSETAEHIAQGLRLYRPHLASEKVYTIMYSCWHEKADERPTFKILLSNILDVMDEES
Procedure: (§1) A 3-fold gradient concentration stock solution of 1000× compound was prepared using DMSO and diluted 100-fold to 10× compound stock solution using reaction buffer (50 mM HEPES, pH 7.5, 0.0015% Briji-35, 2 mM DTT, 10 mM MgCl2), and the 10× compound stock solution was transferred to a 384-well plate. Enzyme reactions were set up with BTK Kinase Enzyme System (Promega Catalog #V2941) or BTK (C481S) Kinase Enzyme System (Promega Catalog #VA7033). First, a 2× enzyme solution containing 10 nM BTK or 10 nM BTK C481S was prepared with reaction buffer and added to the plate, and incubated with the compound for 10 minutes. […] Finally, the kinase activity was detected according to the experimental steps provided by ADP-Glo™ kinase Assay Kit (Promega, #V9101), and finally the luminescence chemiluminescence value was read. DMSO was used as the maximum signal value, and adding no enzyme was used as the minimum signal value. The inhibition rate of the compound (%)=(maximum signal value−compound signal value)/(maximum signal value−minimum signal value)×100% was calculated. The compound gradient dilution concentration and the corresponding inhibition rate of the enzyme activity were fit by using XLFit four-parameter method, and IC50 value was calculated.

BTK (C481S) = BTK (C481S) (Homo sapiens (Human), UniProt Q06187, C481S); assay: BTK C481S enzyme experiment (ADP-Glo kinase assay); format: biochemical; settings: 10 nM BTK C481S, ATP 125 μM, Poly(Glu4, Tyr1), 90 minutes at 20° C.
Sequence of BTK (C481S) (Q06187 whole entry C481S): as the sequence (Q06187 whole entry) above, with C481S counted along it
Procedure: as §1

Row | SMILES | IC50 (BTK) [nM] | IC50 (BTK (C481S)) [nM] | IC50 (TMD-8 cells) [nM] | IC50 (TMD-8 cells; Homo sapiens, TMD8, 72 h) [nM]
1 | O=C(c1ccc(Oc2ccccc2)cc1Cl)c1c[nH]c2ncc3c(c12)N[C@@]1(CCOC1)C(=O)N3 (single isomer, unassigned) [Z1-1] | 67.1 | 23.6 | 183 | 
2 | O=C(c1ccc(Oc2ccccc2)cc1Cl)c1c[nH]c2ncc3c(c12)N[C@]1(CCOC1)C(=O)N3 (single isomer, unassigned) [Z1-2] | 64.7 | 27.2 | 232 | 
3 | CC(=O)N1CC[C@@]2(C1)Nc1c(cnc3[nH]cc(C(=O)c4ccc(Oc5ccccc5)cc4Cl)c13)NC2=O (single isomer, unassigned) [Z4-2] | 46.1 | 19.8 | 1200 | 
4 | O=C(c1ccc(Oc2ccccc2)cc1Cl)c1c[nH]c2ncc3c(c12)N[C@]1(CC[C@H](O)C1)C(=O)N3 (single isomer, unassigned) [Z24-2] | 5 | 4.7 | 63.1 | 
5 | COCCN1C(=O)[C@](C)(COC)Nc2c1cnc1[nH]cc(C(=O)c3ccc(Oc4ccccc4)cc3Cl)c21 [Z142] | 35.2 | 19.7 |  | 
6 | [2H]C([2H])([2H])Oc1cccc(F)c1Oc1ccc(C(=O)c2c[nH]c3ncc4c(c23)N[C@@](C)(COC)C(=O)N4)c(Cl)c1 [Z187] |  |  |  | 41.3
7 | [2H]C([2H])([2H])N1C(=O)[C@](C)(COC)Nc2c1cnc1[nH]cc(C(=O)c3ccc(Oc4ccccc4)cc3Cl)c21 [Z190, (S)-9-(2-chloro-4-phenoxybenzoyl)-2-(methoxymethyl)-2-methyl-4-(methyl-d3)-1,2,4,7-tetrahydro-3H-pyrrolo[3′,2′:5,6]pyrido[3,4-b]pyrazin-3-one] | 16.3 | 20.1 |  | 
8 | [2H]C([2H])([2H])OC[C@]1(C)Nc2c(cnc3[nH]cc(C(=O)c4ccc(Oc5ccccc5)cc4Cl)c23)N(C([2H])([2H])[2H])C1=O [Z193, (S)-9-(2-chloro-4-phenoxybenzoyl)-2-((methoxy-d3)methyl)-2-methyl-4-(methyl-d3)-1,2,4,7-tetrahydro-3H-pyrrolo[3′,2′:5,6]pyrido[3,4-b]pyrazin-3-one] | 19.1 | 21.9 |  | 
9 | COC[C@]1(C)Nc2c(cnc3[nH]cc(C(=O)c4ccc(OC)c(F)c4Cl)c23)NC1=O [Z194, (S)-9-(2-chloro-3-fluoro-4-methoxybenzoyl)-2-(methoxymethyl)-2-methyl-1,2,4,7-tetrahydro-3H-pyrrolo[3′,2′:5,6]pyrido[3,4-b]pyrazin-3-one] | 47.3 | 77.4 |  | 
10 | COC[C@]1(C)Nc2c(cnc3[nH]cc(C(=O)c4ccccc4Cl)c23)N=C1OC [Z200, (S)-(2-chlorophenyl)(3-methoxy-2-(methoxymethyl)-2-methyl-2,7-dihydro-1H-pyrrolo[3′,2′:5,6]pyrido[3,4-b]pyrazin-9-yl)methanone] | 18.8 | 9.9 |  | 
11 | CCSC1=Nc2cnc3[nH]cc(C(=O)c4ccc(Oc5ccccc5)cc4Cl)c3c2N[C@@]1(C)COC [Z203, (S)-(2-chloro-4-phenoxyphenyl)(3-(ethylthio)-2-(methoxymethyl)-2-methyl-2,7-dihydro-1H-pyrrolo[3′,2′:5,6]pyrido[3,4-b]pyrazin-9-yl)methanone] | 75.1 | 142 |  | 

Now from value to compound, other results behind:

Row | IC50 (BTK) [nM] | IC50 (BTK (C481S)) [nM] | SMILES | IC50 (TMD-8 cells) [nM] | IC50 (TMD-8 cells; Homo sapiens, TMD8, 72 h) [nM]
12 | 20 | 20 | C[C@]1(CO)Nc2c(cnc3[nH]cc(C(=O)c4ccc(Oc5ccccc5)cc4Cl)c23)NC1=O (single isomer, unassigned) [Z9-1] | 389 | 
13 | 3.5 | 3.7 | O=C(c1ccc(Oc2ccccc2)cc1Cl)c1c[nH]c2ncc3c(c12)N[C@@]1(CC[C@H](O)C1)C(=O)N3 (single isomer, unassigned) [Z24-1] | 55.4 | 
14 | 32 | 19.8 | COC1CCC2(C1)Nc1c(cnc3[nH]cc(C(=O)c4ccc(Oc5ccccc5)cc4Cl)c13)NC2=O (single isomer, unassigned) [Z25-1, 9′-(2-chloro-4-phenoxybenzoyl)-3-methoxy-4′,7′-dihydrospiro[cyclopentane-1,2′-pyrrolo[3′,2′:5,6]pyrido[3,4-b]pyrazin]-3′(1′H)-one] |  | 101
15 | 58.9 | 88.8 | COC[C@]1(C)Nc2c(cnc3[nH]cc(C(=O)c4ccc(Oc5cc(C)nc(Cl)c5)cc4Cl)c23)NC1=O [Z135, (S)-9-(2-chloro-4-((2-chloro-6-methylpyridin-4-yl)oxy)benzoyl)-2-(methoxymethyl)-2-methyl-1,2,4,7-tetrahydro-3H-pyrrolo[3′,2′:5,6]pyrido[3,4-b]pyrazin-3-one] |  | 
16 | 28.4 | 36.5 | [2H]C([2H])([2H])OC[C@]1(C)Nc2c(cnc3[nH]cc(C(=O)c4ccc(Cn5cccn5)cc4Cl)c23)NC1=O [Z170, (S)-9-(4-((1H-pyrazol-1-yl)methyl)-2-chlorobenzoyl)-2-((methoxy-d3)methyl)-2-methyl-1,2,4,7-tetrahydro-3H-pyrrolo[3′,2′:5,6]pyrido[3,4-b]pyrazin-3-one] |  | 
17 | 76.6 | 115 | [2H]C([2H])([2H])OC[C@]1(C)Nc2c(cnc3[nH]cc(C(=O)c4ccc(Cn5ccc(C)n5)cc4Cl)c23)NC1=O [Z174, (S)-9-(2-chloro-4-((3-methyl-1H-pyrazol-1-yl)methyl)benzoyl)-2-((methoxy-d3)methyl)-2-methyl-1,2,4,7-tetrahydro-3H-pyrrolo[3′,2′:5,6]pyrido[3,4-b]pyrazin-3-one] |  | 
18 | 74.4 | 76.5 | [2H]C([2H])([2H])OC[C@]1(C)Nc2c(cnc3[nH]cc(C(=O)c4ccc(Cn5nccc5C)cc4Cl)c23)NC1=O [Z175, (S)-9-(2-chloro-4-((5-methyl-1H-pyrazol-1-yl)methyl)benzoyl)-2-((methoxy-d3)methyl)-2-methyl-1,2,4,7-tetrahydro-3H-pyrrolo[3′,2′:5,6]pyrido[3,4-b]pyrazin-3-one] |  | 
19 | 50.4 | 60.3 | COC[C@]1(C)Nc2c(cnc3[nH]cc(C(=O)c4ccc(Oc5cc(C)cc(C)n5)cc4F)c23)NC1=O [Z189-1, (S)-9-(4-((4,6-dimethylpyridin-2-yl)oxy)-2-fluorobenzoyl)-2-(methoxymethyl)-2-methyl-1,2,4,7-tetrahydro-3H-pyrrolo[3′,2′:5,6]pyrido[3,4-b]pyrazin-3-one] |  | 
20 | 26.4 | 25.8 | COC[C@]1(C)Nc2c(cnc3[nH]cc(C(=O)c4c(F)cccc4Cl)c23)NC1=O [Z196, (S)-9-(2-chloro-6-fluorobenzoyl)-2-(methoxymethyl)-2-methyl-1,2,4,7-tetrahydro-3H-pyrrolo[3′,2′:5,6]pyrido[3,4-b]pyrazin-3-one] |  | 
21 | 17.4 | 15.1 | CC1(C)COc2cnc3[nH]cc(C(=O)c4ccccc4Cl)c3c2N1 [Z198, (2-chlorophenyl)(2,2-dimethyl-1,2,3,7-tetrahydropyrrolo[3′,2′:5,6]pyrido[3,4-b][1,4]oxazin-9-yl)methanone] |  | 
22 | 42.6 | 23.2 | COC[C@]1(C)Nc2c(cnc3[nH]cc(C(=O)c4ccccc4Cl)c23)N=C1SC [Z199, (S)-(2-chlorophenyl)(2-(methoxymethyl)-2-methyl-3-(methylthio)-2,7-dihydro-1H-pyrrolo[3′,2′:5,6]pyrido[3,4-b]pyrazin-9-yl)methanone] |  | 
23 | 122 | 215 | COC[C@]1(C)Nc2c(cnc3[nH]cc(C(=O)c4ccc(Oc5ccccc5)cc4Cl)c23)N=C1SC [Z201, (S)-(2-chloro-4-phenoxyphenyl)(2-(methoxymethyl)-2-methyl-3-(methylthio)-2,7-dihydro-1H-pyrrolo[3′,2′:5,6]pyrido[3,4-b]pyrazin-9-yl)methanone] |  | 
24 | 23.8 | 27.8 | COC[C@]1(C)Nc2c(cnc3[nH]cc(C(=O)c4ccc(Oc5ccccc5)cc4Cl)c23)NC1=S [Z202, (S)-(2-chloro-4-phenoxyphenyl)(2-(methoxymethyl)-2-methyl-3-thioxo-2,3,4,7-tetrahydro-1H-pyrrolo[3′,2′:5,6]pyrido[3,4-b]pyrazin-9-yl)methanone] |  | 
